Molecules are shown by their SMILES.

The target of one test is T1, reverse transcriptase (Human immunodeficiency virus type 1 group M subtype B, UniProt P04585).
T1 construct: negative control (mixture without reverse transcriptase); purchased Roche Diagnostics GmbH, Mannheim, Germany
The test is described as follows: Biochemical Reverse Transcriptase Assay (Reverse Transcriptase Assay, colorimetric, Roche). The note with it: read-out: IC50 (nM) RT Assay. The procedure: The “Reverse Transcriptase Assay, colorimetric” (Roche Diagnostics GmbH, Mannheim, Germany) is used in accordance with the manufacturer's information. The test substances are dissolved in DMSO and are used in the test diluted in 5-fold steps (final DMSO concentration 1%). The resulting values of the photometric evaluation (405/492 nm) are less than 0.1 for the negative control (mixture without reverse transcriptase) and are in the region of 1.5 for the positive control (mixture without test substance). The IC50 values of the test substances are determined as the concentration of the test substance dilution at which the measured optical density is 50% of the positive control.

In the next test the test system is HIV-1LAI. The test is described as follows: H9 assay with wild-type HIV-1 (HIV-1LAI supernatant infection, AlamarBlue). The note with it: Human immunodeficiency virus 1, H9 cells, 10% FCS. The class given is cell-based. The procedure: For the mixture for a 96-well MTP, 3 million PBLs are pelleted, suspended in 1 ml of RPMI 1640 medium/10% FCS and incubated together with a suitable amount of HIV-1LAI (NIH AIDS Research & Reference Reagent Program, Germantown, USA) at 37° C. for 2 hours (pellet infection). Unadsorbed viruses are subsequently washed out with PBS, and the infected cells are pelleted again and suspended in 18 ml of RPMI 1640 medium/10% FCS/interleukin-2 (40 U/ml). 180 μl thereof are pipetted into each well of a white 96-well MTP with 20 μl of test substance in suitable dilution. Alternatively, after preparation of the substance dilutions in the MTP, the HIV is pipetted in together with the cells and is not washed out again (supernatant infection). In order to avoid edge effects, the wells at the edge of the MTP are not used for substance dilutions. The second vertical row of the MTP contains only infected cells (virus control) and the eleventh vertical row only uninfected cells (cell control), in each case in RPMI 1640 medium/10% FCS/interleukin-2 (40 U/ml). The other wells of the MTP contain the compounds of the invention in various concentrations starting from the third vertical row, from which the test substances are diluted in 3-fold steps up to the tenth vertical row 3^7-fold. The test substances are dissolved in DMSO, whereby the final DMSO concentration in the test mixture eventually is 1%. The test mixtures are incubated at 37° C./5% CO2. After 5 and 7 days, 50 μl of cell-free supernatant are removed from each well to determine the amount of p24 present by means of a p24 ELISA (HIV-1 p24^CA Antigen Capture Assay Kit, NCI-Frederick Cancer Research and Development Center, Frederick, USA). From the resulting values of the photometric evaluation (450/620 nm) the EC50 values of the test substances are determined as the concentration at which the amount of p24 is 50% of the untreated infected cells.
Alternatively, H9 cells (ATCC, Wesel, Germany) are employed instead of PBLs for testing the test substances. H9 cells are incubated in RPMI 1640 medium with 2% or 10% FCS as a HIV-1LAI supernatant infection at 37° C./5% CO2, (20 μl of substance dilution and 80 μl of cells/virus per well) in accordance with the pattern described above for 5 days. Subsequently, 10 μl of AlamarBlue (Invitrogen, Karlsruhe, Germany) are added to each well, and the MTPs are incubated at 37° C. for 3 hours before the fluorimetric evaluation takes place (544/590 nm). The resulting values are about 40 000 for the untreated uninfected cells and about 7000 for the untreated infected cells. In the low concentration range, the EC50 values of the test substances are determined as the concentration at which the fluorescence is 50% of the untreated uninfected cells (in each case subtracting the values of the untreated infected cells). In addition, in the high concentration range, the CC50 values of the test substances are determined as the concentration at which the fluorescence is 50% of the untreated uninfected cells (in each case subtracting the values of the untreated infected cells).

The next test has as its system HIV-1NL4-3 K103N-Y181C. The test is described as follows: Light assay with inhibitor-resistant HI reporter virus in MT4 7F2 cells. The class given is cell-based. Conditions: Human immunodeficiency virus 1, read-out: EC50 (nM) MT4 7F2 cells HIV-1NL4-3 K103N-Y181C 2% FCS. The procedure:
(§1) For the mixture for a 96-well MTP, 3 million MT4 7F2 cells are pelleted, suspended in 1 ml of RPMI 1640 medium without phenol red (Invitrogen, Karlsruhe, Germany)/10% FCS/10% AIM-V (Invitrogen, Karlsruhe, Germany) and incubated together with a suitable amount of the corresponding HIV-1NL4-3 reporter virus at 37° C. for 2 hours (pellet infection). Unadsorbed viruses are subsequently washed out with PBS, and the infected cells are pelleted again and suspended in 8 ml of RPMI 1640 medium without phenol red/2% or 10% FCS/10% AIM-V. 80 μl thereof are pipetted into each well of a white 96-well MTP with 20 μl of test substance in suitable dilution. To avoid edge effects, the wells on the edge of the MTP are not used for substance dilutions. The second vertical row of the MTP contains only infected cells (virus control) and the eleventh vertical row only uninfected cells (cell control), in each case in RPMI 1640 medium without phenol red/2% or 10% FCS/10% AIM-V. The other wells of the MTP contain the compounds of the invention in various concentrations starting from the third vertical row, from which the test substances are diluted in 3-fold steps up to the tenth vertical row 3^7-fold. The test substances are dissolved in DMSO, whereby the final DMSO concentration in the test mixture eventually is 1%. The test mixtures are incubated at 37° C./5% CO2 for five days and, after the addition of 15 μl of Lu164 substrate (5 mg/ml coelenterazine dissolved in 30 μM glutathione/DMSO, 100 mM NaCl, 1M MES, 100 mM glutathione), evaluated by luminometry. The resulting values are in the region of 1 000 000 RLUs (relative light units) for the virus control and 300 to 400 RLUs for the cell control. The EC50 values of the test substances are determined as the concentration at which the virus replication measured in RLUs is 50% of the untreated infected cells.

For a further test, the system named is HIV-1NL4-3 wt. Description: Light assay with wild-type HI reporter virus in MT4 7F2 cells. The class given is cell-based. The note with it: Human immunodeficiency virus 1, 2% FCS. The procedure: as §1

Consider `N#Cc1cc(-n2nc(C(=O)N3CNC(=O)C3)cc2-c2cccc(Cl)c2)ccc1F` [Example 53, 1-{[5-(3-Chlorophenyl)-1-(3-Cyano-4-fluorophenyl)-1H-pyrazol-3-yl]carbonyl}imidazolidin-4-one], for which the IC50 on reverse transcriptase stood at 46 nM. The values for the 50% effective concentration (EC50) with HIV-1LAI, in the test on HIV-1NL4-3 K103N-Y181C and in the test with HIV-1NL4-3 wt were 1 nM, 33 nM and 0.3 nM, respectively.
The like results for `N#Cc1cccc(-n2nc(C(=O)N3CNC(=O)C3)cc2-c2cccc(Cl)c2)c1` [Example 56, 3-{5-(3-Chlorophenyl)-3-[(4-oxoimidazolidin-1-yl)carbonyl]-1H-pyrazol-1-yl}benzenecarbonitrile] were, in that order, 14 nM, 0.1 nM, 12 nM and 0.03 nM.
For `N#Cc1cccc(-n2nc(C(=O)N3CNC(=O)C3)cc2-c2cc(F)cc(Cl)c2)c1` [Example 59], in that order: 8 nM, 1 nM, 10 nM and 0.2 nM.
For `N#Cc1cc(-n2nc(C(=O)N3CNC(=O)C3)cc2-c2cc(F)cc(Cl)c2)ccc1F` [Example 60, 5-{5-(3-Chloro-5-fluorophenyl)-3-[(4-oxoimidazolidin-1-yl)carbonyl]-1H-pyrazol-1-yl}-2-fluorobenzenecarbonitrile], in that order: 9 nM, 0.9 nM, 4 nM and 0.1 nM.
On to `N#Cc1cc(F)cc(-c2cc(C(=O)N3CNC(=O)C3)nn2-c2cccc(Cl)c2)c1` [Example 61, 3-{1-(3-Chlorophenyl)-3-[(4-oxoimidazolidin-1-yl)carbonyl]-1H-pyrazol-5-yl}-5-fluorobenzenecarbonitrile], for which the IC50 on reverse transcriptase is 35 nM. The EC50 was found to be 3 nM in the test on HIV-1LAI, 80 nM in the test on HIV-1NL4-3 K103N-Y181C and 1 nM in the test with HIV-1NL4-3 wt.
The like results for `N#Cc1cc(F)cc(-c2cc(C(=O)N3CNC(=O)C3)nn2-c2ccc(F)c(Cl)c2)c1` [Example 62, 3-{1-(3-Chloro-4-fluorophenyl)-3-[(4-oxoimidazolidin-1-yl)carbonyl]-1H-pyrazol-5-yl}-5-fluorobenzenecarbonitrile] were, in that order, 49 nM, 9 nM, 63 nM and 2 nM.
On to `N#Cc1cc(F)cc(-c2cc(C(=O)N3CNC(=O)C3)nn2-c2ccc(F)c(C#N)c2)c1` [Example 63, 5-{5-(3-Cyano-5-fluorophenyl)-3-[(4-oxoimidazolidin-1-yl)carbonyl]-1H-pyrazol-1-yl}-2-fluorobenzenecarbonitrile], for which the IC50 at reverse transcriptase was determined as 102 nM. Also, the EC50 in the test with HIV-1LAI was determined as 150 nM; in the test on HIV-1NL4-3 K103N-Y181C, 237 nM; in the test with HIV-1NL4-3 wt, 20 nM.
On to `N#Cc1cc(F)cc(-c2cc(C(=O)N3CNC(=O)C3)nn2-c2cccc(C#N)c2)c1` [Example 64, 3-{1-(3-Cyanophenyl)-3-[(4-oxoimidazolidin-1-yl)carbonyl]-1H-pyrazol-5-yl}-5-fluorobenzenecarbonitrile], for which the IC50 at reverse transcriptase was 25 nM. The EC50 turned out to be 100 nM in the test with HIV-1LAI, 250 nM in the test with HIV-1NL4-3 K103N-Y181C and 5 nM with HIV-1NL4-3 wt.
